Data as given in patent US20090099192A1, “Substituted 1H-pyrrole-2,5-diones” (Bayer CropScience AG, priority 2004, published 2009).

Assay: logP determination by HPLC on reversed-phase column (C 18), EEC Directive 79/831 Annex V.A8
Type: physicochemical
Details: reversed-phase C 18, 43° C., acid range (0.1% aqueous phosphoric acid, acetonitrile), marked a)
Description: a) The logP values given in table 1 were determined in accordance with EEC Directive 79/831 Annex V.A8 by HPLC (High Performance Liquid Chromatography) on a reversed-phase column (C 18). Temperature: 43° C. (a) Mobile phases for the determination in the acid range: 0.1% aqueous phosphoric acid, acetonitrile; linear gradient from 10% acetonitrile to 90% acetonitrile—corresponding measurement results are marked a) in table 1. Calibration was carried out using unbranched alkan-2-ones (having 3 to 16 carbon atoms) with known logP values (determination of the logP values by the retention times using linear interpolation between two successive alkanones).

Q: For `O=C1C(O)=C(c2ccc(Cl)cc2)C(=O)N1Cc1ccc(OC(F)(F)F)cc1` [Example 88], which logP is on record?
A: The logP was “logP = 4.27^a)”.

Q: With `Cc1ccc(-c2ccc(Cl)cc2)cc1C1=C(O)C(=O)N(Cc2ccccc2OC(F)(F)F)C1=O` [Example 133] as the compound, how does the logP read?
A: Its logP is “logP = 4.75^a)”.

Q: Which logP does the source give for `CC(C)(C)C(=O)OC1=C(c2ccccc2Cl)C(=O)N(c2ccccc2)C1=O` [Example 28] here?
A: Its logP is “logP = 4.37^a)”.

Q: With `CC(C)(C)C(=O)OC1=C(c2ccccc2Cl)C(=O)N(C2CCOCC2)C1=O` [Example 156] as the compound, how does the logP read?
A: Its logP is “logP = 3.87 ^a)”.

Q: With `N#Cc1ccc(C2=C(O)C(=O)N(Cc3ccc(OC(F)(F)F)cc3)C2=O)cc1` [Example 87] as the compound, how does the logP read?
A: The logP was “logP = 2.85^a)”.

Q: With `CC(C)(C)OC(=O)N1CCCC(N2C(=O)C(O)=C(c3ccccc3Cl)C2=O)C1` (stereo not drawn) [Example 155] as the compound, how does the logP read?
A: Its logP is “logP = 3.18^a)”.

Q: With `O=C1C(O)=C(c2ccc(OC(F)(F)F)cc2)C(=O)N1Cc1ccc(OC(F)(F)F)cc1` [Example 86] as the compound, how does the logP read?
A: The logP was “logP = 4.48^a)”.

Q: For `CCCCOC1CCCC(N2C(=O)C(O)=C(c3ccccc3Cl)C2=O)C1` (stereo not drawn) [Example 152], which logP is on record?
A: The logP was “logP = 3.70^a)”.

Q: For `O=C1C(O)=C(c2cccc(C(F)(F)F)c2)C(=O)N1Cc1ccccc1F` [Example 96], which logP is on record?
A: Its logP is “logP = 3.48^a)”.

Q: For `CCOc1cccc(F)c1CN1C(=O)C(O)=C(c2ccc(Cl)cc2)C1=O` [Example 183], which logP is on record?
A: Its logP is “logP = 3.85^a)”.

Q: Which logP does the source give for `O=C1C(O)=C(c2cccc(C(F)(F)F)c2)C(=O)N1c1ccc(C(F)(F)F)cc1` [Example 68] here?
A: Its logP is “logP = 3.59^a)”.

Q: Which logP does the source give for `O=C1C(O)=C(c2cc(Cl)cc(Cl)c2)C(=O)N1Cc1ccc(OC(F)(F)F)cc1` [Example 91] here?
A: The logP was “logP = 4.12^a)”.

Q: With `O=C1C(O)=C(c2cccc(OC(F)(F)F)c2)C(=O)N1c1cc(Cl)cc(Cl)c1` [Example 80] as the compound, how does the logP read?
A: Its logP is “logP = 3.94^a)”.

Q: Which logP does the source give for `CCOC(=O)C1(N2C(=O)C(O)=C(c3ccccc3Cl)C2=O)CCC(OC)CC1` (single isomer, unassigned) [Example 149] here?
A: The logP was “logP = 2.76^a)”.

Q: Which logP does the source give for `Cc1ccc(-c2ccc(Cl)cc2)cc1C1=C(O)C(=O)N(Cc2cc(Cl)ccc2Cl)C1=O` [Example 139] here?
A: Its logP is “logP = 4.84^a)”.

Q: With `Cc1ccc(-c2ccc(Cl)cc2)cc1C1=C(O)C(=O)N(c2c(Cl)cccc2Cl)C1=O` [Example 135] as the compound, how does the logP read?
A: Its logP is “logP = 4.18^a)”.

Q: Which logP does the source give for `O=C1C(O)=C(c2c(F)cccc2F)C(=O)N1c1ccc(OC(F)(F)F)cc1` [Example 50] here?
A: Its logP is “logP = 2.80^a)”.

Q: Which logP does the source give for `Cc1ccc(-c2ccc(Cl)cc2)cc1C1=C(O)C(=O)N(c2c(F)cccc2F)C1=O` [Example 124] here?
A: Its logP is “logP = 3.85^a)”.

Q: Which logP does the source give for `O=C1C(O)=C(c2ccccc2Cl)C(=O)N1c1ccccc1` [Example 24] here?
A: The logP was “logP = 2.43^a)”.

Q: Which logP does the source give for `Cc1ccc(C2=C(O)C(=O)N(Cc3ccccc3F)C2=O)cc1` [Example 103] here?
A: The logP was “logP = 3.51^a)”.

Q: With `O=C1C(O)=C(c2cccc(OC(F)(F)F)c2)C(=O)N1c1ccc(Cl)cc1` [Example 65] as the compound, how does the logP read?
A: The logP was “logP = 3.59^a)”.

Q: With `O=C1C(O)=C(c2ccc(OC(F)(F)F)cc2)C(=O)N1CC(F)(F)F` [Example 39] as the compound, how does the logP read?
A: The logP was “logP = 3.04^a)”.

Q: For `O=C1C(O)=C(c2cc(Cl)cc(Cl)c2)C(=O)N1c1ccc(C(F)(F)F)cc1` [Example 72], which logP is on record?
A: The logP was “logP = 3.42^a)”.

Q: For `O=C1C(O)=C(c2ccccc2Cl)C(=O)N1Cc1cc(Cl)cc(Cl)c1` [Example 111], which logP is on record?
A: Its logP is “logP = 3.67^a)”.

Q: For `Cc1ccc(-c2ccc(Cl)cc2)cc1C1=C(O)C(=O)N(CC2CC2)C1=O` [Example 125], which logP is on record?
A: Its logP is “logP = 4.08^a)”.

Q: For `Cc1ccc(-c2ccc(Cl)cc2)cc1C1=C(O)C(=O)N(Cc2c(Cl)cccc2Cl)C1=O` [Example 140], which logP is on record?
A: The logP was “logP = 4.70^a)”.

Q: Which logP does the source give for `O=C1C(O)=C(c2cccc(C(F)(F)F)c2)C(=O)N1CC(F)(F)F` [Example 38] here?
A: Its logP is “logP = 2.70^a)”.

Q: For `CCOc1cccc(F)c1CN1C(=O)C(O)=C(c2ccc(C(F)(F)F)cc2)C1=O` [Example 184], which logP is on record?
A: The logP was “logP = 3.81^a)”.

Q: Which logP does the source give for `O=C1C(O)=C(c2ccccc2F)C(=O)N1Cc1ccc(OC(F)(F)F)cc1` [Example 83] here?
A: The logP was “logP = 3.45^a)”.

Q: Which logP does the source give for `N#Cc1ccc(C2=C(O)C(=O)N(c3ccc(C(F)(F)F)cc3)C2=O)cc1` [Example 69] here?
A: Its logP is “logP = 2.80^a)”.
